Columns and labels:
[1] = target: T1, Grb2 SH2 domain protein (b-Grb2) (Homo sapiens, UniProt P62993); test: Surface Plasmon Resonance (SPR) determination of Grb2 SH2 domain-binding Kd values; settings: BIACORE S51, immobilized biotinylated Grb2 SH2 domain, 25° C., PBS pH 7.4
T1 construct: All Biotinylated Grb2 SH2 domain protein (b-Grb2) was expressed and purified; biotin (biotinylated)
Procedure: Binding affinities were determined as follows. Surface Plasmon Resonance (SPR) Determination of Grb2 SH2 Domain-Binding Kd Values. Binding experiments were performed on a BIACORE S51 instrument (Biacore Inc., Piscataway N.J.). All Biotinylated Grb2 SH2 domain protein (b-Grb2) was expressed and purified (Protein Expression Laboratory and The Protein Chemistry Laboratory, SAIC—Frederick). The b-Grb2 was immobilized onto carboxymethyl 5′ dextran surface (CM5 sensor chip, Biacore Inc.) by amine coupling. The lyophilized b-Grb2 was reconstituted in fifty percent DMSO in H2O to make a stock solution of 1 mg/mL and stored at −80° C. A 1:12.5 dilution of b-Grb2 was used for immobilization and prepared by dilution in acetate buffer pH-5.0, with 5% DMSO. 1×PBS (phosphate buffered saline, pH 7.4) was used as the running buffer.
An immobilization wizard was used to facilitate immobilization targeting. For b-Grb2, 2500-5000 resonance units (RU) of protein were captured on the CM5 sensor chip. Small molecule ligands were serially diluted in running buffer to concentrations of 1.25 nM-1500 nM, as described in each sensorgram and injected at 25° C. at a flow rate of 30 μl/min for 1 minute and dissociation was monitored for an additional 3 minutes. Surface regeneration was not used. Samples of differing concentrations of small molecule ligands were injected in increasing concentration, with every injection being performed in duplicate within each experiment. In order to subtract background noise from each data set, all samples were also run over an unmodified reference surface and injections of running buffer were performed throughout every experiment (“double referencing”). Up to six data sets were fit to a simple 1:1 interaction model or to a surface heterogeneity model (“complex model”) for compound 41, using the global data analysis program CLAMP. Myszka, D. G.; Morton, T. A.; CLAMP: A biosensor kinetic data analysis program. Trends Biochem. Sci. 1998, 23, 149-150. The mean of the ratio and associated error were calculated according to known procedures. van Kempen, G. M.; van Vliet, L. J.; Mean and variance of ratio estimators used in fluorescence ratio imaging. Cytometry 2000, 39, 300-305.

[2] = target: T2, Grb2 SH2 domain-MBP fusion protein (Homo sapiens, UniProt P62993); test: ELISA-based determination of Grb2 SH2 domain-binding IC50 values; settings: competition with HRP-SA-biotinylated-phosphopeptide complex
T2 construct: is added biotinylated Grb2 SH2 domain-MBP fusion protein; biotin (biotinylated)
Procedure: ELISA-Based Determination of Grb2 SH2 Domain-Binding IC50 Values. To multiwell plates pre-coated with streptavidin (SA) is added biotinylated Grb2 SH2 domain-MBP fusion protein. SH2 domain-fusion protein binds to the SA on the plate and unbound protein is then washed away and the plate is blocked using the commercial ELISA blocking agent, I-Block that contains detergent and casein (a milk protein). This blocking agent prevents subsequently-added constituents from sticking to the plastic well non-specifically. To the wells is then added horseradish peroxidase-(HRP)-SA-biotinylated-phosphopeptide as a pre-formed complex (termed “Complex”). [NOTE: The HRP-SA-biotinylated phosphopeptide complex is prepared ahead of time by combining a vast molar excess of SA-HRP with the biotinylated phosphopeptide to assure that all of the biotin sites are bound to SA-HRP before they are added to the well. This prevents those biotin sites from sticking to the SA coating on the plate, which would generate a signal even in the absence of biotinylated Grb2 SH2 domain-MBP fusion protein.] This complex binds to the Grb2 SH2 domain via the phosphopeptide. Unbound Complex is washed away before adding HRP substrate (OPD) to generate a color that is measured spectrophotometrically. Synthetic SH2 domain binding antagonists, at various concentrations, are added to wells in the presence of Complex to compete for HRP-SA-biotinylated-phosphopeptide binding to Grb2 SH2 domain protein. The intensity of the resulting color for each well as a function of the concentration of synthetic inhibitor added is recorded.

T1 sequence (P62993 60-152 limits assumed): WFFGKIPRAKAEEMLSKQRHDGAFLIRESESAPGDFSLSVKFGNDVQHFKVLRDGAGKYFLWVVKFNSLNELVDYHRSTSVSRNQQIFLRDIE
T2 sequence (P62993 60-152 limits assumed): as above

Structure (SMILES) | Kd [1] [nM] | IC50 [2] [nM]
Cc1ccc2c(ccn2CC2CC=CC(c3ccc(CP(=O)(O)O)cc3)C(CC(=O)O)C(=O)NC3(CCCCC3)C(=O)NC(CC(N)=O)C(=O)NC2)c1 (centres unmarked) [Compound 6] | 1.67 | 
Cc1ccc2c(ccn2CC2CC=CC(c3ccc(NC(=O)C(=O)O)cc3)C(CC(=O)O)C(=O)NC3(CCCCC3)C(=O)NC(CC(N)=O)C(=O)NC2)c1 (centres unmarked) [Compound 28] | 67 | 8.8
Cc1ccc2c(ccn2CC2CC=CC(c3ccc(C(C(=O)O)C(=O)O)cc3)C(CC(=O)O)C(=O)NC3(CCCCC3)C(=O)NC(CC(N)=O)C(=O)NC2)c1 (centres unmarked) [Compound 32] | 3.62 | 3.3
Cc1ccc2c(ccn2CC2CC=CC(c3ccc(CC(=O)O)cc3)C(CC(=O)O)C(=O)NC3(CCCCC3)C(=O)NC(CC(N)=O)C(=O)NC2)c1 (centres unmarked) [Compound 33] |  | 22.5
Cc1ccc2c(ccn2CC2CC=CC(c3ccc(CP(=O)(O)Cc4ccccc4)cc3)C(CC(=O)O)C(=O)NC3(CCCCC3)C(=O)NC(CC(N)=O)C(=O)NC2)c1 (centres unmarked) [Compound 41] | 35.3 | 8.4
